From ChEMBL document CHEMBL1201862, “PubChem BioAssay data set” (2004)
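96-well plates; 48 h exposure; 5 concentrations. Endpoints by linear interpolation between flanking doses. Not reached: highest tested concentration assigned. GI50: concentration for 50% inhibition of growth.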 Calls of active or inactive are those of the source. No stated cut-off is given here; in the data, active = GI50 up to about 1.1 µM and inactive = higher.

Tests used:
Assay in all cases: NCI anticancer screen, dose series, 48 h
[1] = system: SK-MEL-5
[2] = system: IGROV-1
[3] = system: SW-620
[4] = system: Malme-3M
[5] = system: LOX IMVI
[6] = system: HT-29
[7] = system: DU-145
[8] = system: T47D
[9] = system: COLO 205
[10] = system: BT-549
[11] = system: SN12C
[12] = system: KM12
[13] = system: SF-268
[14] = system: NCI-H226
[15] = system: SNB-75

Measured: GI50

CCOC(=O)c1csc(NC(=O)CCN2CCOCC2)n1
inactive: [1] 67.1 µM | [2] 41 µM | [3] 49.1 µM | [4] 19.3 µM | [5] 93.8 µM | [6] 36.5 µM | [7] 44.7 µM | [8] > 100 µM | [9] 52.7 µM

Cc1ccc(-c2cs/c(=N\c3c(C)n(C)n(-c4ccccc4)c3=O)n2CCO)cc1
inactive: [10] 74.3 µM | [11] > 100 µM | [12] > 100 µM | [13] > 100 µM | [14] > 100 µM | [15] > 100 µM
